{
  "source": "ChEMBL document CHEMBL6092138",
  "about": "“Discovery of the potent covalent inhibitor with an acrylate warhead for SARS-CoV-2 3CL protease” (Bioorg Med Chem Lett, 2024)",
  "data": [
    {"tested_on": "SARS-CoV-2", "assay": "Antiviral activity against replicon RNA harboring SARS-CoV-2 infected in human Huh-7 cells assessed as inhibition of viral replication", "format": "functional, organism-based", "conditions": "Severe acute respiratory syndrome coronavirus 2, Huh-7", "units": {"EC50": "nM"}, "values": [
      {"compound": "COC(=O)/C=C/[C@H](C[C@@H]1CCNC1=O)NC(=O)[C@@H]1[C@@H]2[C@H](CN1C(=O)[C@@H](NC(=O)C(F)(F)F)C(C)(C)C)C2(C)C", "EC50": 45},
      {"compound": "CC(C)(C)[C@H](NC(=O)C(F)(F)F)C(=O)N1C[C@H]2[C@@H]([C@H]1C(=O)N[C@H](/C=C/C(N)=O)C[C@@H]1CCNC1=O)C2(C)C", "EC50": "> 5000"},
      {"compound": "CC(C)(C)[C@H](NC(=O)C(F)(F)F)C(=O)N1C[C@H]2[C@@H]([C@H]1C(=O)N[C@H](C#N)C[C@@H]1CCNC1=O)C2(C)C", "note": "[NIRMATRELVIR]", "EC50": 23}
    ]}
  ]
}
